Test results taken from US20110033525A1, “Diterpene Glycosides as Natural Solubilizers” (priority 2008, published 2011).
≈ marks a conversion by molar mass, not a printed value. Read-outs that look alike come from different tables or passages of the source.

Key:
[1] = tested on: various human cancer cell lines; details: Kaczirek 2004; read-out: Reported IC50 range; cited from earlier work
[2] = tested on: A549 (human lung) cancer cells; test: MTT cellular proliferation assay, A549; type: cell-based; details: 72 hr
Method: (§1) Paclitaxel and camptothecin were purchased from Sigma Chemicals (St. Louis, Mo.). […] The solution was sonicated for 60 min at 69° C. and then placed in a shaking incubator at 25° C. for 48 hr. The solution was then centrifuged at 4,000×g, and the supernatant was filtered with a 0.2 μm nylon filter. […] The sample was labeled as TXL100. To make an aqueous solution of camptothecin, about 5 mg of camptothecin was weighed into a solution containing 70 mg/ml rubusoside. The solution was sonicated for 60 min at 69° C., and then placed in a shaking incubator at 25° C. for 48 hr. The solution was then centrifuged at 4,000×g and the supernatant was filtered with a 0.2 μm nylon filter. This aqueous solution was analyzed by HPLC and contained 10 μg/ml camptothecin in the presence of 70 mg/ml rubusoside. This sample was labeled as CPT70.
Inhibition of cellular proliferation was assessed by a MTT assay. […] On the day of the staining, MTT solution (3 mg Thiazolyl Blue Tetrazolium Bromide/ml PBS was prepared. To each well, 25 μl MTT solution was directly added. The plate was then incubated for 90 to 120 min. Afterwards, the wells were aspirated completely and carefully. Finally, 50 μl DMSO (dimethyl sulfoxide) was added to each well. The plate was read at 650 nm on a microplate reader. Cell proliferations were calculated as % of the control using the vehicle treatment as the control. […]

[3] = Stability of solubilizers and solubilized water solutions (heat, pH, light, storage)
[4] = tested on: PANC-1 (human pancreatic) cancer cells; test: MTT cellular proliferation assay, PANC-1; type: cell-based; details: 72 hr
Method: as §1
(§2) Inhibition of cellular proliferation was assessed by a MTT assay. Each well of the 96-well plate contained 10^4 cells/100 μl cell culture growth medium. The cells were seeded onto the plate and placed in a 37° C. incubator overnight. On the next day, the compound treatment was set up. A series of dilutions using phosphate buffered saline (PBS) containing 10% FBS (fetal bovine serum) with either the test compound or vehicle with cell culture growth medium was made for each well with a final volume of 200 μl. Each treatment had 8 wells in a column. Prior to the addition of the test compound, the existing medium in each of the wells was aspirated completely and carefully to avoid losing cells. A series of dilutions of the aqueous samples were made ranging from 20 μl to 0.078 μl supplemented with culture media to make a final volume of 200 μl for each well. The plate was placed in a 37° C. incubator for 72 hr. On the day of the staining, MTT solution (3 mg Thiazolyl Blue Tetrazolium Bromide/ml PBS was prepared. To each well, 25 μl MTT solution was directly added. The plate was then incubated for 90 to 120 min. Afterwards, the wells were aspirated completely and carefully. Finally, 50 μl DMSO (dimethyl sulfoxide) was added to each well. The plate was read at 650 nm on a microplate reader. Cell proliferations were calculated as % of the control using the vehicle treatment as the control.
(§3) Calculations of IC50 in molar concentrations were as follows. […] Thus, 1 μl/ml of TXL solution in the culture medium equaled 17 ng TXL/ml culture medium, which equaled 19.9 nM based on the molecular weight of 854.
(§4) CPT: The sample concentration of CPT was 10 μg/ml=10 ng/μl, and the molecular weight of camptothecin is 348. Thus, 1 μl/ml of CPT solution in the culture medium equaled 10 ng CPT/ml culture medium, which equaled 28.7 nM based on the molecular weight of 348.

[5] = tested on: PC3 (human prostate) cancer cells; test: MTT cellular proliferation assay, PC3; type: cell-based; details: 72 hr
Method: as §1, §2, §3, §4

[6] = The Merck Index (1996) or Material Safety Data Sheets; cited from earlier work
physchem = details: for solubility: 25 °C, thermodynamic from solid
Method: Solubility test methods: A compound with low solubility was selected and weighed into multiple centrifuge tubes. Each experimental tube received a known amount of the solubilizing agent being tested. The control tubes remained only with the compound. The same volume, 1 mL, unless otherwise indicated, of deionized and distilled water was added to each tube. Alternatively, a set percentage of water solutions containing the solubilizer to be tested (e.g., 5% w/v or 10% w/v) were prepared separately. In these cases, the solubilizer-water solutions were added directly to the tubes containing the low-solubility compound. The tubes were then vortexed briefly and then sonicated for 60 min at temperature of 50° C. unless otherwise indicated. After sonication, the tubes were placed on an orbital shaker at a speed of 80 rpm in an incubator set at 25° C. for at least 24 hr. The tubes were then centrifuged at 4000 rpm for 10 min. The supernatant solution was passed through a 0.2 μm or 0.45 μm filter and analyzed for the concentration of the low-solubility compound, and sometimes the solubilizing compound, by HPLC or UV-Vis spectrophotometer.
The system was computer controlled, and the results were analyzed using Empower software. Calibrations curves were constructed using known concentrations of the compounds and were used to quantify the concentrations of the compounds dissolved in solution. A more complete description of the HPLC procedure for some of the diterpene glycosides is found in G. Chou et al., “Quantitative and fingerprint analyses of Chinese sweet tea plant (Rubus suavissimus S. Lee),” J. Agric. Food Chem., vol.
The ratio of peak areas was used to calculate the increase in water solubility in the absence or presence of solubilizers.

[7] = in vivo; cited from earlier work
[8] = tested on: Staphylococcus aureus ATCC 29740 (Newbould 305); test: Germicidal and Detergent Sanitizer Test (modified AOAC); type: cell-based
Method: (§5) Germicidal and Detergent Sanitizer Test. The following challenge organisms were grown in trypticase soy broth for 24 h at 37° C.: Staphylococcus aureus (Gram-positive) ATCC 29740 (Newbould 305), Streptococcus agalactiae (Gram-positive) ATCC 27956 (McDonald 44), Streptococcus dysgalactiae (Gram-positive) ATCC 27957, Streptococcus uberis (Gram-positive) ATCC 27958, Escherichia coli (Gram-negative) ATCC 25922, Pseudomonas aeruginosa (Gram-negative) ATCC 27853, and clinical mastitis isolates of Enterobacter aerogenes (Gram-negative) (216RF) and Klebsiella pneumoniae (Gram-negative) (A37RR) from the Louisiana State University Hill Farm Research Station dairy herd.
(§6) Bacterial cultures. Aliquots of each 24-h bacterial culture were standardized to a turbidity of a 0.5 McFarland standard, which corresponds to approximately 150×10^6 colony-forming units (cfu) per ml. Aliquots containing 0.02 ml of this culture were added to 1.98 ml aliquots of the curcumin-rubusoside solution. […] This solution was mixed thoroughly, and diluted 1:1000 in saline, and 0.1 ml was plated on duplicate Letheen Agar (Becton Dickinson, Cockeysville, Md.) plates for each microorganism tested. Resultant colonies were counted after incubation of the plates at 37° C. for 24 h.
(§7) First Experiment. The test compound was a solubilized curcumin water solution. […] The solution was kept in the dark.
(§8) Second Experiment. For the second experiment, the bacterial cultures were as described above. […] First, 100 mL of a 5% w/v rubusoside water solution was prepared. […] This solution was then autoclaved at 115° C. and 1 atmosphere pressure for 30 min. The autoclaved solution was held in an incubator at 37° C. for 72 hr, and kept in the dark. The solution was adjusted to pH 7.4 by adding appropriate amount of phosphate buffered saline powder and then filtered through a 0.45 μm Nylon filter and analyzed on HPLC.

[9] = tested on: Pseudomonas aeruginosa ATCC 27853; test: as above; type: cell-based
Method: as §5, §6, §7, §8

[10] = tested on: Streptococcus uberis ATCC 27958; test: as above; type: cell-based; details: solution pH 6.5, 30 Seconds
Method: as §5, §6, §7, §8

[11] = tested on: Streptococcus dysgalactiae ATCC 27957; test: as above; type: cell-based
Method: as §5, §6, §7, §8

[12] = tested on: Streptococcus agalactiae ATCC 27956 (McDonald 44); test: as above; type: cell-based
Method: as §5, §6, §7, §8

[13] = tested on: Klebsiella pneumoniae (A37RR); test: as above; type: cell-based; details: solution pH 6.5, 30 Seconds
Method: as §5, §6, §7, §8

[14] = tested on: Enterobacter aerogenes (A216RF); test: as above; type: cell-based; details: solution pH 6.5, 30 Seconds
Method: as §5, §6, §7, §8

[15] = tested on: Escherichia coli ATCC 25922; test: as above; type: cell-based
Method: as §5, §6, §7, §8

PC3 cells = details: existing formulation, Danesi 1995, Rowinsky 1990, read-out: Reported IC50 for PC3 cells, cited from earlier work
[16] = tested on: MDA-M231 breast cancer cells; details: current drug formulation; Nornoo 2008; read-out: Concentration to kill 50% of cells; cited from earlier work
[17] = volume of aqueous sample per ml culture medium
[18] = Homo sapiens, converted from μl/ml, read-out: IC50

In the case of CC[C@@]1(O)C(=O)OCc2c1cc1n(c2=O)Cc2cc3ccccc3nc2-1 [Camptothecin], the IC50 [1] is given as 10 to 3500 nM, the IC50 [2, 17] is given as 4.93 μl/ml and the IC50 [2, 18] is given as 142 nM. For the same compound, the “Stability of rubusoside water solution at room temperature” value [3] was “stable at room temperature for at least two weeks”, the IC50 [4, 17] was 1.91 μl/ml and the IC50 [4, 18] was 54.9 nM. The IC50 [5, 17] was 1.03 μl/ml, the IC50 [5, 18] was 29.6 nM and the “Water solubility in words” value [6] was “insoluble”. The “Concentration dissolved in rubusoside water solution” value (“Concentration dissolved” below) (physchem; 70 mg (109 mM) rubusoside) was 144 µM, the “Concentration dissolved” value (physchem; 70 mg rubusoside (70 mg/ml, 109 mM)) was 50000 ng/mL and the solubility (physchem; aqueous with cosolvent or surfactant or cyclodextrin, Solubility in water with solubilizer, natural solubilizer (rubusoside) 20% w/v (200 mg in 1 ml)) was 144 µg/mL (≈ 413 µM). It also gave a solubility (physchem; water, Solubility of CPT, Table 4, rubusoside amount as in the label) of 0.4 µg/mL (≈ 1.15 µM).
In the case of CCCCN(CCCC)CC(O)c1cc(Cl)cc2c1-c1ccc(Cl)cc1/C2=C/c1ccc(Cl)cc1 (stereo not shown) [Lumefantrine], the Half-life [7] is listed as 72 to 140 h.
COc1cc(/C=C/C(=O)CC(=O)/C=C/c2ccc(O)c(OC)c2)ccc1O [Curcumin] showed a Percent reduction ([8]; solution pH 6.5, 10 Minutes) of 26.67%, a Percent reduction ([8]; solution pH 6.5, 30 Seconds) of 39.33% and a Percent reduction ([9]; solution pH 6.5, 10 Minutes) of 99.99%. For the same compound, the Percent reduction ([9]; solution pH 6.5, 30 Seconds) was 99.99%, the Percent reduction [10] was “no observed inhibition” and the Percent reduction ([11]; solution pH 6.5, 10 Minutes) was 47.92%. The Percent reduction ([11]; solution pH 6.5, 30 Seconds) was 43.75%, the Percent reduction ([12]; solution pH 6.5, 10 Minutes) was 99.7% and the Percent reduction ([12]; solution pH 6.5, 30 Seconds) was 91.7%. The Percent reduction [13] was “no observed inhibition”, the Percent reduction [14] was “no observed inhibition” and the Percent reduction ([15]; solution pH 6.5, 10 Minutes) was 98.54%. For the same compound, the Percent reduction ([15]; solution pH 6.5, 30 Seconds) was “no observed inhibition”.
In the case of CC(=O)O[C@H]1C(=O)[C@@]2(C)[C@H]([C@H](OC(=O)c3ccccc3)[C@]3(O)C[C@H](OC(=O)[C@H](O)[C@@H](NC(=O)c4ccccc4)c4ccccc4)C(C)=C1C3(C)C)[C@]1(OC(C)=O)CO[C@@H]1C[C@@H]2O [Paclitaxel, reference compound], the IC50 (PC3 cells; listed as paclitaxel) is given as 31.2 nM, the IC50 (PC3 cells) is given as 50 nM and the IC50 [4, 17] is given as 0.24 μl/ml. It also gave an IC50 [4, 18] of 4.9 nM, an IC50 [5, 17] of 0.69 μl/ml and an IC50 [5, 18] of 13.7 nM. For the same compound, the “Solubility in water with solubilizer” value (physchem) was 10 µg/mL, the Solubility increase factor (physchem) was “up to 877” and the “Concentration dissolved” value (physchem; 20 mg rubusoside in 1 ml water) was 350 ng/mL. For the same compound, the IC50 [16] was > 1000 nM.
